Values joined by “and” are separate entries in the source; they are usually repeats but may differ in a detail not shown here. Equal entries are not always repeated. These antisense oligonucleotides have a phosphorothioate backbone; sugars and methylation of C are not fully specified. A value given as a limit tells only on which side of the number the result lay.
Further: test concentration or dose not given here.

For the first data set, the target named is DUSP8. As to conditions: ASO.
In turn, CAGGGCGGCCAGCAGCTTCA registered a remaining target (mRNA or protein) (fraction of control) of at least 1.
The sequence CCCAGGCCCGCCCCGCAGCA returned a remaining target (mRNA or protein) (fraction of control) of 0.66.
The same measure, in the same setting: the figure for CCCGTCGGGCGACGGCGTGC is at least 1; for CCGACGGGCTGTCCAGCTTG it is 0.94; for CCTCAGGCGCGGCGTCCGGG it is at least 1.
In turn, CGCCCGCCCGGCCGAAGGGC yielded a remaining target (mRNA or protein) (fraction of control) of 0.86.
Still for that read-out and setting: the figure for CTCAGGCCGCCCTCCCTGGC is 0.65; for GACTGAAGGTGGCCTCGTAT it is 0.69; for GAGAGCTTGGCTTTATCGAT it is 0.68.
On the same count and under the same terms, the figure for GAGCCGGTCCCCAGCCATGG is at least 1.
Still for that read-out and setting: the figure for GAGCTCGAGGACCACCCGCA is 0.89; for GCCTGTCCTTCACGAACCTG it is at least 1; for GCTGGACCTCGCTCGCGCTC it is at least 1.
Sequence GGAGAAGGAGCGCTTGAGGC had a remaining target (mRNA or protein) (fraction of control) of 0.98.
Same read-out and setting: the figure for GGCAGGCAGGGCTGGGAGAG is at least 1; for GGCCAGCCGGTCCGCGCGTC it is 0.52; for GGCTGCTCCGACGGCCCAGG it is at least 1.
On the same count and under the same terms, the figure for GGGCAGCCCGGGCGCCGACA is 0.81.
Same read-out and setting: next, GTAGGTGGTGGCAGCCGTGG: at least 1.
With GTCAGGACACCTCGATGACC, the remaining target (mRNA or protein) (fraction of control) is at least 1.
Consider GTCGAAGCAGCCGTCCAGCT, for which the remaining target (mRNA or protein) (fraction of control) is at least 1.
The same measure, in the same setting: next, TCACCTTGCCCTGCTGCAGC: 0.33; TCGCCTGCTTGCCCAGGGCG: 0.69.
In turn, TCTGCCGGGCCGCATCGCCG showed a remaining target (mRNA or protein) (fraction of control) of 0.35.
Same read-out and setting: the figure for TGCCCATGGTCTTCATGATG is 0.7.
Same read-out and setting: the figure for TGGTCATAGACCACCACGTC is at least 1; for TTCTTTGCATTATATATAAT it is at least 1; for TTGCTGGCGTTGAGGACGTA it is 0.45.
On to TTTCACAGTAGTTGTCGTTG, for which the remaining target (mRNA or protein) (fraction of control) is at least 1.

For another data set, the target named is ERBB2. As to conditions: ASO.
The sequence ACCGCAGAGATGATGGAC came in with a remaining target (mRNA or protein) (fraction of control) of 0.98.
Sequence ACTCTGGTGGGTGAACCG displayed a remaining target (mRNA or protein) (fraction of control) of 0.86.
CACTGGTAACTGCCCTCA registered a remaining target (mRNA or protein) (fraction of control) of 0.54.
On the same count and under the same terms, the figure for CAGGAAGGACAGGCTGGC is 0.94.
The same measure, in the same setting: the figure for CAGGGTCAGCGAGTAGGC is 0.89; for CCACAAAGACTCCCCAGT it is 0.44.
Same read-out and setting: next, CCAGCAGTGAGCGGTAGA: 0.41; CCATCAGTCTCAGAGGGC: 0.3.
The sequence CCCTTGTAGACTGTGCCA gave a remaining target (mRNA or protein) (fraction of control) of 0.56.
Still for that read-out and setting: next, CCGCACATCCTCCAGGTA: 0.64; CCGCCACTCCTGGTAGAT: at least 1; CCTGCCTCACTTGGTTGT: 0.64.
Same read-out and setting: the figure for CCTTTCCAGAGTGGCACC is 0.75; for CGAAGGCTGGGCTGAAGG it is 0.73; for CTGGTAGAGGTGGCGGAG it is at least 1.
Turning to CTGGTTCACACTGGCACG, the remaining target (mRNA or protein) (fraction of control) turned out to be 0.4.
As for GACCACGACCAGCAGAAT, the remaining target (mRNA or protein) (fraction of control) amounted to 0.76.
Still for that read-out and setting: next, GACCATAGCACACTCGGG: 0.57.
Still for that read-out and setting: next, GCACCACCTGGCAGCCCT: 0.73; GCACGAAGCAGAGGTGGG: 0.47; GCACTTCTCACACCGCTG: 0.51.
Same read-out and setting: the figure for GCAGCCGAGCCAGCCCGA is 0.61; for GCAGCGGGAGCCCTTACA it is 0.83.
GCCAGGGCATAGTTGTCC registered a remaining target (mRNA or protein) (fraction of control) of 0.81.
On the same count and under the same terms, next, GCTGGTTGTTCTTGTGGA: 0.73; GGCAGTGTTGGAGGCTGG: 0.57.
Turning to GGGAACTCAAGCAGGAAG, the remaining target (mRNA or protein) (fraction of control) turned out to be 0.68.
In turn, GGGTGGCACGGCAAACAG showed a remaining target (mRNA or protein) (fraction of control) of 0.81.
With GGGTGGTATTGTTCAGCG, the remaining target (mRNA or protein) (fraction of control) turned out to be 0.94.
The same measure, in the same setting: next, GGTCTCGGGACTGGCAGG: 0.68; GTGGATGTCAGGCAGATG: 0.86.
On the same count and under the same terms, the figure for GTGGTTGAAGTGGAGGCA is 0.98; for GTTGGGCATCGCTCCGCT it is 0.59.
The same measure, in the same setting: the figure for TCAGGTTTCACACCGCTG is 0.66.
In turn, TCGGAGCCAGCCCCTTCG displayed a remaining target (mRNA or protein) (fraction of control) of 0.53.
The same measure, in the same setting: the figure for TGATGCCAGCAGAAGTCA is 0.94.
With TTCTGCTGCCGTCGCTTG, the remaining target (mRNA or protein) (fraction of control) was 0.75.
The same measure, in the same setting: the figure for TTGACACACTGGGTGGGC is 0.61.

The target of a further data set is DUSP9. Particulars: ASO.
For the sequence AAGAACCGCGACAGGTTCTG, the remaining target (mRNA or protein) (fraction of control) came out at 0.83.
Still for that read-out and setting: the figure for ACCCTCCATGGGCGATCGGC is 0.43.
Same read-out and setting: next, AGAAGAGGCAGGCTCCGAGC: 0.53; AGACCCTCCATGGGCGATCG: 0.45.
The same measure, in the same setting: next, AGCCCCAGTGATCCCGTCAA: at least 1; AGCGGCCCAGACCCTCCATG: 0.46.
For the sequence AGGAGCAGGAGCCGCGGCCG, the remaining target (mRNA or protein) (fraction of control) was found to be 0.7.
On the same count and under the same terms, next, AGGCCATGGATGTGGGCGGC: 0.57.
On the same count and under the same terms, the figure for AGGCCCCAGCCCCGAGAGGC is 0.54; for ATTAGGACGGCAGCCCGCGT it is at least 1.
Same read-out and setting: next, CAGCAGGGTGCCCAGCACCG: at least 1; CATGGGCGATCGGCTCCCTA: 0.85.
CCACGGGCACTGGACCGGGC registered a remaining target (mRNA or protein) (fraction of control) of 0.5.
Still for that read-out and setting: next, CCAGACCCTCCATGGGCGAT: at least 1.
With CCAGGCAGGAGCGCGCGCAC, the remaining target (mRNA or protein) (fraction of control) is 0.62.
CCCAGGGCCGGGACCTGGGC registered a remaining target (mRNA or protein) (fraction of control) of 0.98.
Still for that read-out and setting: the figure for CCCATGAAGTTGAAGTTGGG is 0.44; for CCGGGCACTGCCCAGATAGA it is 0.62.
Same read-out and setting: the figure for CCTCCATGGGCGATCGGCTC is 0.7.
On the same count and under the same terms, next, CGAAGAAGTTTGGGAGGTTG: 0.3; CGAGCACCCCGCAGTTCTGG: 0.94.
As for CGAGCCCTCCTGCCCTCCCC, the remaining target (mRNA or protein) (fraction of control) came to 0.65.
Same read-out and setting: the figure for CGAGCGGCCCAGACCCTCCA is at least 1; for CGGCCCAGACCCTCCATGGG it is 0.57; for CGTCGCGGCCGGGAAGTTTC it is 0.95.
On the same count and under the same terms, next, CTCATGGAGTCGCGGTCAGC: 0.86.
CTCCTGCGAGTGGCGCTCCT yielded a remaining target (mRNA or protein) (fraction of control) of at least 1.
Still for that read-out and setting: next, GACAGAAATGAATGACTGTG: 0.14.
Same read-out and setting: next, GACCCCATCTCCTCCGGCGG: 0.23; GCCACGCTCAGCGCCCCACC: 0.94; GCCCAGACCCTCCATGGGCG: 0.92.
Still for that read-out and setting: next, GGGCCCCGCAGCAGCAAAAG: 0.35.
In the case of GGGCGCTCCGCTCTGCTCGG, the remaining target (mRNA or protein) (fraction of control) is 0.8.
On to GTGGCACACACCCTTCCTGA, for which the remaining target (mRNA or protein) (fraction of control) was at least 1.
Same read-out and setting: the figure for TCCATGGGCGATCGGCTCCC is 0.74; for TGACAACACCAGTGATGGCA it is 0.52; for TGGAGCTTCTGCATGAGGTA it is 0.75.
Still for that read-out and setting: the figure for TGGGCAGGGACACCCGTGGG is 0.79; for TGGGCGATCGGCTCCCTACA it is 0.91.

The target of the next data set is SELE. As to conditions: ASO.
For the sequence AATCATGACTTCAAGAGTTCT, the remaining target (mRNA or protein) (fraction of control) was 0.78 and 0.53.
In the case of ACAGGATCTCTCAGGTGGGT, the remaining target (mRNA or protein) (fraction of control) turned out to be 0.2.
Still for that read-out and setting: next, ACCACACTGGTATTTCACAC: 0.67; ACCTCTGCTGTTCTGATCCT: 0.17; ACGTTTGGCCTCATGGAAGT: 0.35.
Same read-out and setting: next, CAATCATGACTTCAAGAGTTC: 0.77.
Same read-out and setting: next, CACAATCCTTAAGAACTCTTT: 0.31; CAGCCAAGAACAGCT: 0.5.
In turn, CAGCCAAGAACAGCTGG returned a remaining target (mRNA or protein) (fraction of control) of 0.62.
Regarding CCAAAGTGAGAGCTGAGAGA, the remaining target (mRNA or protein) (fraction of control) was found to be 0.36.

The record behind these values is the OligoGym collection.
